Patent US8546451B2 (priority 2005, dated 2013)
Marks after values point to notes of the source that are not given here.

Assays:
[1] = system: circulating androgen (primarily testosterone and dihydrotestosterone); experiment: Suppression and recovery of androgen levels in intact male monkeys; format: in vivo, Cynomolgus monkeys; set-up: circulating androgen levels: unit not given here
Protocol: The effect of Compound IV on suppression and recovery of testosterone levels in intact male monkeys was evaluated in conjunction with an oral pharmacokinetic study. Three treatment naïve male Cynomolgus monkeys (2 to 3 years old) were administered Compound IV at 30 mg/kg daily by oral gavage for 7 consecutive days. Blood samples were collected and divided into serum and plasma for testosterone and Compound IV quantitative measurements, respectively.

[2] = system: rat bone, organ weight, and serum hormone parameters; experiment: Bone preservation despite reduction of LH and testosterone in rats; format: in vivo; conditions: for Bone Mineral Density / FSH / LH / Levator Ani Muscle weight / Percent Bone Volume (BV/TV) / Prostate weight / Seminal Vesicles weight: Intact
[3] = system: morphine dependent rat model; experiment: Hot flashes in morphine dependent rat model (tail skin temperature); format: in vivo; conditions: morphine withdrawal model
Protocol: FIG. 13 depicts effect of Compound IV on attenuation of hot flashes in morphine withdrawal model with 5 mg/kg, 10 mg/kg, 15 mg/kg and 30 mg/kg dosages. N=7 animals per group. 17β-E2 was used at 5 mg/kg in 100% DMSO. (See Example 14.)
In addition to the similarities to the human condition, this experimental animal model has a short turn around time which makes it a useful high throughput screening tool for identifying compounds that can alleviate vasomotor symptoms using the tail skin temperature (TST). TST probes TA-40 (Data Sciences International, MN) were taped to the base of the tails and baseline temperatures were obtained for 15 minutes. After 15 minutes the animals were treated with naloxone (1 mg/kg, SQ) to reverse the effects of the morphine. Tail skin temperature (TST) was measured for one hour post-naloxone treatment with a sampling frequency of 5 secs throughout the course of the experiment. Following the data acquisition, the moving average of the temperature recorded every 60 seconds for each animal was calculated and further analyzed. Baseline temperature was computed as the average temperature acquired over the 15 minutes preceding naloxone administration. The area under the curve (AUC) was calculated by subtracting all the values post-naloxone administration from the baseline using a linear trapezoid method.

CYP3A4 = experiment: CYP450 induction in vitro, CYP3A4; format: in vitro ADME
CYP2C9 = CYP2C9 (Homo sapiens (Human), UniProt P11712); experiment: CYP450 inhibition in vitro, CYP2C9; format: in vitro ADME
hERG channel = hERG channel (Homo sapiens (Human), UniProt Q12809); experiment: hERG channel inhibition in vitro; format: cell-based
Protocol: Compound IV exerts little or no in vitro inhibitory effects (IC50≧300 μM) on the hERG channel.

telemetered dogs = experiment: Hemodynamic and cardiac function in telemetered dogs; format: in vivo; conditions: any dose (up to 300 mg/kg)
[4] = Renal function after single oral dose; format: in vivo

Chain of CYP2C9 (P11712 whole entry): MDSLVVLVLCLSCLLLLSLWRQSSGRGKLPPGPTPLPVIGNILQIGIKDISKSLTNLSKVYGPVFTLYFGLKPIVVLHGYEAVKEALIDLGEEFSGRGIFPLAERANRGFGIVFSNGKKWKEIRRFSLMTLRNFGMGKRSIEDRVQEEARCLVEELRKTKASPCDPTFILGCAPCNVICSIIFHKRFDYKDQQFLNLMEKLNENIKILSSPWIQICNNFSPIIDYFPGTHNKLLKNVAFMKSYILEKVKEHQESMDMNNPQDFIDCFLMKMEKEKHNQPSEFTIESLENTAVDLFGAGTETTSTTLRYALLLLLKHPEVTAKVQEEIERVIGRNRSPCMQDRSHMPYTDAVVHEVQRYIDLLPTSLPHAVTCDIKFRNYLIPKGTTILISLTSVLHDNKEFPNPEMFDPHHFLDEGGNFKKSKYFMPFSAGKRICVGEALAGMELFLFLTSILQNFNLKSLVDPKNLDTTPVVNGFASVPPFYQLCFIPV
Chain of hERG channel (Q12809 whole entry): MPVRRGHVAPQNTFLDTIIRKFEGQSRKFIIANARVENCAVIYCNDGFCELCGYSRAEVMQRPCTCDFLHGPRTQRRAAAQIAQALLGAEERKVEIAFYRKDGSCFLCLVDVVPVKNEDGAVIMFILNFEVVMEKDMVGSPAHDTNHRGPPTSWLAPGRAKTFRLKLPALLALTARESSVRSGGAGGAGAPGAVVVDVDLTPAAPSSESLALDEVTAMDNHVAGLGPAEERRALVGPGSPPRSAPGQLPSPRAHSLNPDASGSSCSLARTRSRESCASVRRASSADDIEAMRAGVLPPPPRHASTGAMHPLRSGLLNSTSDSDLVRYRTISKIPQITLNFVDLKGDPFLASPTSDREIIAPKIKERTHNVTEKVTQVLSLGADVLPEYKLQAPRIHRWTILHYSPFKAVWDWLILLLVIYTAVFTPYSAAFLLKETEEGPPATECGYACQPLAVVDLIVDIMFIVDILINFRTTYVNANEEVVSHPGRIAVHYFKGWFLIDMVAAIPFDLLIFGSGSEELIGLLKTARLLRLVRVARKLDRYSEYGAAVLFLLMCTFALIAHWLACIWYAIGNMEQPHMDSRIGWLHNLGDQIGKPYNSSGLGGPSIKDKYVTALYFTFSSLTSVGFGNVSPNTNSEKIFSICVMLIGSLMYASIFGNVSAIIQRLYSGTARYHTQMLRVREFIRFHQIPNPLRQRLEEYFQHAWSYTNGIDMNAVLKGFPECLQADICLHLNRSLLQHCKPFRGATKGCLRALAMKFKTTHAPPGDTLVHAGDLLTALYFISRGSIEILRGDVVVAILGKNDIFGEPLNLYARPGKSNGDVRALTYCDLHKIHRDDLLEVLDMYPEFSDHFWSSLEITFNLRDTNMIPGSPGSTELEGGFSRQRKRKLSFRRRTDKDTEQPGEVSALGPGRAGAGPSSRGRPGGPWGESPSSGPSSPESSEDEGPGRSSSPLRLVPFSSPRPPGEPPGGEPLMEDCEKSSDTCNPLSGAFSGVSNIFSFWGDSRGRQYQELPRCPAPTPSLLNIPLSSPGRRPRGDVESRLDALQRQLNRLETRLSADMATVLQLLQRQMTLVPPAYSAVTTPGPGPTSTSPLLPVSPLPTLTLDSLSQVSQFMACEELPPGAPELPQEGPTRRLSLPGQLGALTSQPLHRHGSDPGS

O=C(c1ccc(O)c(F)c1)N(c1ccc(O)cc1)c1ccc(F)cc1 [Compound IV, 3-fluoro-N-(4-fluorophenyl)-4-hydroxy-N-(4-hydroxyphenyl)benzamide]
decrease of circulating androgen levels compared to baseline ([1]; 30 mg/kg daily oral gavage for 7 days): up to 47%
circulating androgen levels ([1]; Day 2, 30 mg/kg daily oral gavage, mean±SEM): 997±104
circulating androgen levels ([1]; Day 6, 30 mg/kg daily oral gavage, mean±SEM): 852±136
circulating androgen levels ([1]; after 18-day drug-free recovery period): 1757.7±369.5
Bone Mineral Density ([2]; 1 mg/kg per day oral): 0.273^b g/cm^3
FSH ([2]; 1 mg/kg per day oral): 14.1^a,b ng/mL
LH ([2]; 1 mg/kg per day oral): 0.820^b ng/mL
Levator Ani Muscle weight ([2]; 1 mg/kg per day oral): 80.0^a,b % of Intact
Percent Bone Volume (BV/TV) ([2]; 1 mg/kg per day oral): 20.0^b %
Prostate weight ([2]; 1 mg/kg per day oral): 69.2^a,b % of Intact
Seminal Vesicles weight ([2]; 1 mg/kg per day oral): 44.6^a,b % of Intact
Bone Mineral Density ([2]; 10 mg/kg per day oral): 0.326^a,b g/cm^3
FSH ([2]; 10 mg/kg per day oral): 5.48^a,b ng/mL
LH ([2]; 10 mg/kg per day oral): 0.060^a,b ng/mL
Levator Ani Muscle weight ([2]; 10 mg/kg per day oral): 58.1^a % of Intact
Percent Bone Volume (BV/TV) ([2]; 10 mg/kg per day oral): 25.9^a,b %
Prostate weight ([2]; 10 mg/kg per day oral): 30.7^a,b % of Intact
Seminal Vesicles weight ([2]; 10 mg/kg per day oral): 12.8^a,b % of Intact
Bone Mineral Density ([2]; 30 mg/kg per day oral): 0.326^a,b g/cm^3
FSH ([2]; 30 mg/kg per day oral): 6.32^a,b ng/mL
LH ([2]; 30 mg/kg per day oral): 0.078^a,b ng/mL
Levator Ani Muscle weight ([2]; 30 mg/kg per day oral): 56.1^a % of Intact
Percent Bone Volume (BV/TV) ([2]; 30 mg/kg per day oral): 25.5^a,b %
Prostate weight ([2]; 30 mg/kg per day oral): 30.1^a,b % of Intact
Seminal Vesicles weight ([2]; 30 mg/kg per day oral): 14.4^a,b % of Intact
dose levels with significant reduction of LH ([2]; intact animals): ≥ 10 mg/kg per day
bone loss associated with LH suppression ([2]; intact male rats, orally administered): completely prevented the bone loss
dose with the best results [3]: 10 mg
effect on hot flushes ([3]; 5, 10, 15 and 30 mg/kg (FIG. 13)): attenuated hot flushes
induction of CYP3A4 (CYP3A4): does not induce
Ki (CYP2C9): 8 µM
IC50 (hERG channel): ≥ 300 µM
hemodynamic or cardiac function (blood pressure, heart rate, electrocardiogram morphology or QT intervals) (telemetered dogs): did not affect
effects on renal function ([4]; highest dose tested (100 mg/kg)): increased urine volume output and urinary excretion of potassium and chloride
effects on renal function ([4]; single oral dose of up to 30 mg/kg): No significant effects
